Results: patent US12714721B2, “Methods of treatment of a cytokine storm” (Loma Linda University Health, priority 2020, dated 2026)
Entries after “also recorded” stand apart in the source; their conditions may differ.

Assay: Serum IGF-I in LPS-treated mice after IGF-I in vivo gene therapy
Parameters: species or system mouse
Conditions: LPS 20 mg/kg i.p., 7-day study, IGF-I gene therapy i.m. one day prior to LPS
Procedure: AKI inflammation was associated with a decrease in serum IGF-I. This deficiency was rescued by expression of IGF-1. An in vivo gene therapy approach was utilized. A lentiviral vector engineered to express IGF-I was injected into skeletal muscle of the mice. Constant IGF-I production was designed because IGF binding protein 3, which normally binds to and stabilizes IGF-1 in serum, is expected to decrease. This decrease is due to liver growth receptor depression and therefore the free IGF-I, being a small molecule, is excreted in the urine. By using in vivo gene therapy approach, the free IGF-I is available to the sites of injury in the kidney.
In this 7-day study, there was a marked drop in serum IGF-I from 337.5 to 85 ng/mL (p<0.001), as a consequence of LPS therapy (20 mg/kg body weight). […] Under normal conditions, IGF-I circulates bound to IGFBP3. However, under the conditions of LPS administration, IGFBP3 would be expected to be low. Consequently, IGF-1 produced by muscle should circulate as free IGF-I, which would be readily accessible through the remaining intact vasculature to the injured kidney.
Experimental Design for IGF-1 and BTP-2 studies—The animal experiments involved B6 mice between 5-8 weeks of age. […]

IGF-I: Insulin-like Growth Factor, delivered by a lentiviral vector engineered to express IGF-I injected into skeletal muscle
serum IGF-I: normalized the low serum IGF-I; also recorded: rescued this deficiency | serum IGF-I (listed as Lenti-IGF-I): rescued the serum IGF-I deficiency
